# Patent US9796742B2, “Kinase inhibitors” (Respivert Limited, priority 2012, dated 2017)
# Read-outs that look alike come from different tables or passages of the source.
# What was measured:
# GSK3α = GSK3α (Homo sapiens (Human), UniProt P49840); assay: GSK 3α enzyme inhibition (FRET, Z-LYTE; Method 2); assay type: biochemical
# Summary of the method: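 GSK3-α protein preincubated with compound for 105 min, then Z-LYTE FRET peptide and ATP added for 1 h before protease development for 1 h. Phosphorylation taken from coumarin/fluorescein emission ratio; percent inhibition against uninhibited control and IC50 calculated from concentration-response curves.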
# c-Src = c-Src (Homo sapiens (Human), UniProt P12931); assay: c-Src enzyme inhibition (FRET, Z-LYTE); assay type: biochemical
# Summary of the method: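 Z-LYTE FRET peptide assay with enzyme preincubated with compound for 2 h at RT, then 1 h kinase reaction and 1 h protease development. ATP solutions were 800 μM for c-Src and 60 μM for Syk. Inhibition was taken from the coumarin/fluorescein emission ratio, and IC50 from concentration-response curves.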
# d-U937 cells = assay: LPS-induced TNFα/IL-8 release in d-U937 cells; assay type: cell-based; settings: Homo sapiens, dU937, LPS-stimulated d-U937 cells
# Protocol: U937 cells, a human monocytic cell line, are differentiated to macrophage-type cells by incubation with phorbol myristate acetate (PMA; 100 ng/mL) for 48 to 72 hr. Cells are pre-incubated with final concentrations of test compound for 2 hr and are then stimulated with 0.1 μg/mL of LPS (from E. Coli: O111:B4, Sigma) for 4 hr. The supernatant is collected for determination of TNFα and IL-8 concentrations by sandwich ELISA (Duo-set, R&D systems). The inhibition of TNFα production is calculated as a percentage of that achieved by 10 μg/mL of BIRB796 at each concentration of test compound by comparison against vehicle control. The relative 50% effective concentration (REC50) is determined from the resultant concentration-response curve. The inhibition of IL-8 production is calculated at each concentration of test compound by comparison with vehicle control. The 50% inhibitory concentration (IC50) is determined from the resultant concentration-response curve.
# Sequence of GSK3α (P49840 whole entry): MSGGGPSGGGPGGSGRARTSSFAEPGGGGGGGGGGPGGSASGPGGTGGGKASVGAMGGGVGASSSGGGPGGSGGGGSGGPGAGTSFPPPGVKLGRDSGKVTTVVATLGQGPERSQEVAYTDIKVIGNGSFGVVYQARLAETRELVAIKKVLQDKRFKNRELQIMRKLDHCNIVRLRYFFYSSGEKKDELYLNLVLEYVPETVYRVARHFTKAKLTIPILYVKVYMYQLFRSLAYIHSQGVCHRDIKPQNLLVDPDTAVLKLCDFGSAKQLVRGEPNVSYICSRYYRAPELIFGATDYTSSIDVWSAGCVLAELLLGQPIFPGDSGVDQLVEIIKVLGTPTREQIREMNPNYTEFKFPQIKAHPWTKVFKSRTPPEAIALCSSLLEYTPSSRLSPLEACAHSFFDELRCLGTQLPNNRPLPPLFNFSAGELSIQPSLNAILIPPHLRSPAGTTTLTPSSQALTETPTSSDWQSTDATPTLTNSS
# Sequence of c-Src (P12931 whole entry, looked up): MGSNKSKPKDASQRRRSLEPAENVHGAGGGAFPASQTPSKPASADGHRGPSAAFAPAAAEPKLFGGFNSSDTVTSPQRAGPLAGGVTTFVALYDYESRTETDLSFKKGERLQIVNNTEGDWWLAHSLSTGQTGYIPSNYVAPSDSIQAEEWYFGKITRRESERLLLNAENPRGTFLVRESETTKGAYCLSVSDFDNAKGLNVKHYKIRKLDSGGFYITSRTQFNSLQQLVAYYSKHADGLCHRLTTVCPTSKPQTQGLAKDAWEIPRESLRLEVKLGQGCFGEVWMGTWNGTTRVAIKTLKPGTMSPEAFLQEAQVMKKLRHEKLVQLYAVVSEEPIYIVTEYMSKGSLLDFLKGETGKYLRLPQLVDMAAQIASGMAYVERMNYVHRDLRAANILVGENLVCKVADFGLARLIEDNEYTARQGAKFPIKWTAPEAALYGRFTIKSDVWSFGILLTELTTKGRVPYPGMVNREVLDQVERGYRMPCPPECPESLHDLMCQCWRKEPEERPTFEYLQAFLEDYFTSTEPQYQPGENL
structure (smiles),measurement,setting,value
"COCCOCCOCCOc1cc(Nc2nccc(Oc3ccc(NC(=O)Nc4cc(C(C)(C)C)nn4-c4cccc(CP(C)(C)=O)c4)c4ccccc34)n2)cc(OC)c1 [Example 60, 1-(3-(tert-Butyl)-1-(3-((dimethylphosphoryl)methyl)phenyl)-1H-pyrazol-5-yl)-3-(4-((2-((3-methoxy-5-(2-(2-(2-methoxyethoxy)ethoxy)ethoxy)phenyl)amino)pyrimidin-4-yl)oxy)-naphthalen-1-yl)urea]",IC50,GSK3α,1100 nM
same,IC50,c-Src,2 nM
same,IC50,"d-U937 cells; IL-8, read-out: IC50 Values for Inhibition of Cytokine Release, dU937 cells IL-8",0.4 nM
same,IC50,"d-U937 cells; TNFα (REC50 relative to BIRB796 per method), read-out: IC50 Values for Inhibition of Cytokine Release, dU937 cells TNFα",0.2 nM
